Read-outs that look alike come from different tables or passages of the source.
Experiments:
[1] = test system: KARN cells (Jurkat 2C4); assay: cells; conditions: Homo sapiens
[2] = target: human HDAC2 (Homo sapiens (Human), UniProt Q92769); assay: HDAC2 inhibition assay (modified FLUOR DE LYS, 384-well); type: biochemical; conditions: […] enzyme, 40 μM substrate BML-KI104, 3 h pre-incubation; read-out: HDAC2 IC50
[3] = target: human HDAC8 (Homo sapiens (Human), UniProt Q9BY41); assay: HDAC8 inhibition assay (modified FLUOR DE LYS, 384-well); type: biochemical; conditions: […] enzyme, 200 μM substrate BML-KI178, 3 h pre-incubation; read-out: HDAC8 IC50
[4] = target: human HDAC1 (Homo sapiens (Human), UniProt Q13547)
[5] = target: human HDAC3/SMRT heterodimer (Homo sapiens (Human), UniProt O15379)
[6] = target: HDAC6 (Homo sapiens (Human), UniProt Q9UBN7)
[7] = read-out: Karn EC50 nM 0.1% NHS, 0.1% normal human serum, luciferase induction, 2 μM SAHA = 100%
[8] = read-out: Karn EC50 nM 5% NHS, 5% normal human serum, luciferase induction, 2 μM SAHA = 100%

human HDAC8, sequence (Q9BY41 whole entry): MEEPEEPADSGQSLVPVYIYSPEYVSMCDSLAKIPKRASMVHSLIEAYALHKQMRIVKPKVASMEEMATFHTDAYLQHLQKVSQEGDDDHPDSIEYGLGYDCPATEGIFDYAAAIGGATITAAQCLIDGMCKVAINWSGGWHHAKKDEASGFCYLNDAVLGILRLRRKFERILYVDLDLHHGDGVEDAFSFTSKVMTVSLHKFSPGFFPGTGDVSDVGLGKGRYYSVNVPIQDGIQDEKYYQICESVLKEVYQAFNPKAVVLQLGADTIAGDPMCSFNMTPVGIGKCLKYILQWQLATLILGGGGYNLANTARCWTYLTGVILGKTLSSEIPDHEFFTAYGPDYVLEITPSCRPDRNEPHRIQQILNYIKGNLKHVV
human HDAC2, sequence (Q92769 whole entry): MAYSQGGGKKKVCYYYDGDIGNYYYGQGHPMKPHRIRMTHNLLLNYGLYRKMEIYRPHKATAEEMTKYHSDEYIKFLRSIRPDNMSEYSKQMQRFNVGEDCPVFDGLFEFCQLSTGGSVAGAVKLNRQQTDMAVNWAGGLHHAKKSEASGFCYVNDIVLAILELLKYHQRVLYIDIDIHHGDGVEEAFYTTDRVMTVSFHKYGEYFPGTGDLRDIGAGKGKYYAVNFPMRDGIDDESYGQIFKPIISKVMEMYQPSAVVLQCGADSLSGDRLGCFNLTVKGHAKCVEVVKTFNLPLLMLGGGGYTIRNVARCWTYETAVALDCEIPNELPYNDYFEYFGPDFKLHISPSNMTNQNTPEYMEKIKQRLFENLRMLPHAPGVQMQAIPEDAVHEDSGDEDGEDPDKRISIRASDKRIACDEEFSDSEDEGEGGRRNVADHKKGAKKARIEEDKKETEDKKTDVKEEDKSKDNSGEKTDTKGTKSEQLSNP
human HDAC1, sequence (Q13547 whole entry): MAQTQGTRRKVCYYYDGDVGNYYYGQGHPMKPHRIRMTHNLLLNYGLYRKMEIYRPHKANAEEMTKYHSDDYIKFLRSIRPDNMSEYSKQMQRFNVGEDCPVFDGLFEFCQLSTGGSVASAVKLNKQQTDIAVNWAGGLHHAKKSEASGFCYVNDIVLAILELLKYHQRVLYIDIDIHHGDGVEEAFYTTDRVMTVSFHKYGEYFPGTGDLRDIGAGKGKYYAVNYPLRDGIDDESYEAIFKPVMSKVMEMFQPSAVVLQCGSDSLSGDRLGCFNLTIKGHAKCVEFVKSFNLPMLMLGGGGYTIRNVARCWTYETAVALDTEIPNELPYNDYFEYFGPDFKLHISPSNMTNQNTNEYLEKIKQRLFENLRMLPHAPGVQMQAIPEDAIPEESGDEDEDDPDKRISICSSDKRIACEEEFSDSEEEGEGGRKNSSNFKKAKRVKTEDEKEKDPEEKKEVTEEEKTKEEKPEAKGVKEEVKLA
human HDAC3/SMRT heterodimer, sequence (O15379 whole entry): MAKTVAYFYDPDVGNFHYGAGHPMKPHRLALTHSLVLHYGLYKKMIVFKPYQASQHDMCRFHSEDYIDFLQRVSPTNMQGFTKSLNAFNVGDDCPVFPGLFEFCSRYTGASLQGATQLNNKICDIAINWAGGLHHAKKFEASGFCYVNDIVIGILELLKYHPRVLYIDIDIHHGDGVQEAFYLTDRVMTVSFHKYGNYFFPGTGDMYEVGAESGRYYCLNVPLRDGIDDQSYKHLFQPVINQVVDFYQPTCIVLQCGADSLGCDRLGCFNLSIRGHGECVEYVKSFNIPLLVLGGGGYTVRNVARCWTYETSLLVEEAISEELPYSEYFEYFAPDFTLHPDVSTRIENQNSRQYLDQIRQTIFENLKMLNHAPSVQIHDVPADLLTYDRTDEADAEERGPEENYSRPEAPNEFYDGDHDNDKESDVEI
human HDAC3/SMRT heterodimer, sequence (Q9Y618 1-899 partner): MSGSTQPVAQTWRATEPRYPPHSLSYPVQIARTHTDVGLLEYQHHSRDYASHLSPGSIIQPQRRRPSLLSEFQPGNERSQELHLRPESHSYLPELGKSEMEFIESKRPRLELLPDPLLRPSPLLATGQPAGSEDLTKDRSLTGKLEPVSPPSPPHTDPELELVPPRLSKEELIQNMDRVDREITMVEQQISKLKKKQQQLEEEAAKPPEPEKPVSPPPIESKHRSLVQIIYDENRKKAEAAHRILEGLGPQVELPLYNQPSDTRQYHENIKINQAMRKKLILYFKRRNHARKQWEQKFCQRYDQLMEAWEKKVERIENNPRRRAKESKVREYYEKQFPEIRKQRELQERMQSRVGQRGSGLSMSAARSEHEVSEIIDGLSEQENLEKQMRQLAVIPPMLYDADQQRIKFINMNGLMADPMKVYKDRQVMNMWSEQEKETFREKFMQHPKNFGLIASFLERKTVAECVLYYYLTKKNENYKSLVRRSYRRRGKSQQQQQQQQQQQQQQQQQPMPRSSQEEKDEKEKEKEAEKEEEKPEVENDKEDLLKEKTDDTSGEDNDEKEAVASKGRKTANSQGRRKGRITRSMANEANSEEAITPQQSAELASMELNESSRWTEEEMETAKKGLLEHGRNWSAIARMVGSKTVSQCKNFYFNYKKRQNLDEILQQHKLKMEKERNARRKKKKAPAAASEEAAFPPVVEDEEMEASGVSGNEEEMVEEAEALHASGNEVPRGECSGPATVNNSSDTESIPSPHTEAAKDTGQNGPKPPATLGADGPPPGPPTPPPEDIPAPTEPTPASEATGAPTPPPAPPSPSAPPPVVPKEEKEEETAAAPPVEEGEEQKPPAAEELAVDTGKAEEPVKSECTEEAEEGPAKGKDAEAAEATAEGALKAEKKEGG
HDAC6, sequence (Q9UBN7 whole entry): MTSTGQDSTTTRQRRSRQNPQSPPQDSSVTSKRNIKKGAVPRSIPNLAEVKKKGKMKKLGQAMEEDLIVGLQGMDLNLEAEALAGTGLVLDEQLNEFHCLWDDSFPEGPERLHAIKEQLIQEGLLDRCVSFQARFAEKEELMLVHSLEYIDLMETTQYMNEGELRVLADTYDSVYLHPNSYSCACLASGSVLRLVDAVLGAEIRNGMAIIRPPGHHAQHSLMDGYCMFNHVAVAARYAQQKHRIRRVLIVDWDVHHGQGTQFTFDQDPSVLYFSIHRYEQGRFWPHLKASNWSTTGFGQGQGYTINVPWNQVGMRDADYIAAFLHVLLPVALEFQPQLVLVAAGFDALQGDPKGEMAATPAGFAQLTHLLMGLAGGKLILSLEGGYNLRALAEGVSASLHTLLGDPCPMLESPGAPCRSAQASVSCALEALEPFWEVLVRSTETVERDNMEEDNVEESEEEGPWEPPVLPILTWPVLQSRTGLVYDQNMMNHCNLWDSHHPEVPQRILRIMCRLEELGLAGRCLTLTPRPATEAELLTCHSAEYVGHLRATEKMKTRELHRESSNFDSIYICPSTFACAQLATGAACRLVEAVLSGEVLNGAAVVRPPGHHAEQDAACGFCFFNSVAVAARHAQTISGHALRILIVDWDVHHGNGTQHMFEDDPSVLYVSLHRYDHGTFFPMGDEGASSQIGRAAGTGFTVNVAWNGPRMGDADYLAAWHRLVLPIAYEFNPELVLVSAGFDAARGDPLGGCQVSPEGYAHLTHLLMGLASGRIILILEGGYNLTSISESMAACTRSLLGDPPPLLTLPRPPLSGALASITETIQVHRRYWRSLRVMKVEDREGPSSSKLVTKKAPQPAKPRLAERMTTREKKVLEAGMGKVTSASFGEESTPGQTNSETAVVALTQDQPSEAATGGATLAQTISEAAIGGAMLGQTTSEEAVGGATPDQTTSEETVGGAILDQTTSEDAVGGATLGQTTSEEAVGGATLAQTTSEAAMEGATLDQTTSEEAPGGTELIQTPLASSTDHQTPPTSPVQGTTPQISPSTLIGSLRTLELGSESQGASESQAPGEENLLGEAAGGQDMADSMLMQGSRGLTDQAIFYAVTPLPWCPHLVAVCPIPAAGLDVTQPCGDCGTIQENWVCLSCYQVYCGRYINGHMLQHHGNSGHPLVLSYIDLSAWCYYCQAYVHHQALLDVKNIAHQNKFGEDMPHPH

Structure (SMILES): Cc1cc(C(=O)CCCCC[C@H](N)c2nc(-c3ccccc3F)c[nH]2)no1 [Example 45]
- EC50 [1, 7]: 460 nM
- EC50 [1, 8]: 1900 nM
- IC50 [2]: 76 nM
- IC50 [3]: 1200 nM
- IC50 [4]: 8.9 nM
- IC50 [5]: 19 nM
- IC50 [6]: 45000 nM

Structure (SMILES): COc1cc2nc(C)ccc2cc1-c1cnc([C@H](CCCCCC(=O)c2ncco2)NC(=O)c2cc3n(n2)CCS(=O)(=O)C3)[nH]1 [Example 165, N-[(1S)-1-[5-(7-methoxy-2-methylquinolin-6-yl)-1H-imidazol-2-yl]-7-(1,3-oxazol-2-yl)-7-oxoheptyl]-6,7-dihydro-4H-pyrazolo[5,1-c][1,4]thiazine-2-carboxamide 5,5-dioxide]
- EC50 [1, 7]: 370 nM
- EC50 [1, 8]: 760 nM
- IC50 [2]: 7.2 nM
- IC50 [3]: 41 nM
- IC50 [4]: 2.3 nM
- IC50 [5]: 0.46 nM
- IC50 [6]: > 900 nM

Structure (SMILES): COc1cc2nc(C)ccc2cc1-c1cnc([C@H](CCCCCC(=O)c2ccon2)NC(=O)CN(C)C)[nH]1 [Example 91]
- EC50 [1, 7]: 17 nM
- EC50 [1, 8]: 22 nM
- IC50 [2]: 1.9 nM
- IC50 [3]: 14 nM
- IC50 [4]: 1.5 nM
- IC50 [5]: 1.5 nM
- IC50 [6]: 11000 nM

Structure (SMILES): CCN(CC)CC(=O)N[C@@H](CCCCCC(=O)c1ncco1)c1ncc(-c2cc3ccccc3nc2OC)[nH]1 [Example 50]
- EC50 [1, 7]: 21 nM
- EC50 [1, 8]: 140 nM
- IC50 [2]: 3.2 nM
- IC50 [3]: 47 nM
- IC50 [4]: 0.99 nM
- IC50 [5]: 1.3 nM
- IC50 [6]: 1700 nM

Structure (SMILES): COc1ccc(-c2cnc([C@@H](N)CCCCCC(=O)c3ncco3)[nH]2)c(F)c1 [Example 140, (7S)-7-amino-7-[5-(2-fluoro-4-methoxyphenyl)-1H-imidazol-2-yl]-1-(1,3-oxazol-2-yl)heptan-1-one]
- EC50 [1, 7]: 390 nM
- EC50 [1, 8]: 860 nM
- IC50 [2]: 6 nM
- IC50 [3]: > 900 nM
- IC50 [4]: 1 nM
- IC50 [5]: 1.3 nM
- IC50 [6]: > 900 nM

Structure (SMILES): N[C@@H](CCCCCC(=O)c1ncco1)c1ncc(-c2ccc(C(F)(F)F)cc2F)[nH]1 [Example 139, (7S)-7-amino-7-{5-[2-fluoro-4-(trifluoromethyl)phenyl]-1H-imidazol-2-yl}-1-(1,3-oxazol-2-yl)heptan-1-one]
- EC50 [1, 7]: 1700 nM
- EC50 [1, 8]: 2700 nM
- IC50 [2]: 28 nM
- IC50 [3]: > 900 nM
- IC50 [4]: 5.6 nM
- IC50 [5]: 5.9 nM
- IC50 [6]: > 900 nM

Structure (SMILES): COc1cc2nc(C)ccc2cc1-c1cnc([C@H](CCCCCC(=O)c2ncco2)NC(=O)c2cc3ncccn3n2)[nH]1 [Example 161, N-[(1S)-1-[5-(7-methoxy-2-methylquinolin-6-yl)-1H-imidazol-2-yl]-7-(1,3-oxazol-2-yl)-7-oxoheptyl]pyrazolo[1,5-a]pyrimidine-2-carboxamide]
- EC50 [1, 7]: 75 nM
- EC50 [1, 8]: 210 nM
- IC50 [2]: 11 nM
- IC50 [3]: 44 nM
- IC50 [4]: 1.7 nM
- IC50 [5]: 0.57 nM
- IC50 [6]: > 900 nM

Structure (SMILES): COc1nc2ccccc2cc1-c1cnc([C@H](CCCCCC(=O)c2ncco2)NC(=O)C2COCCO2)[nH]1 (stereo partly drawn) [Example 152, N-[(1S)-1-[5-(2-methoxyquinolin-3-yl)-1H-imidazol-2-yl]-7-(1,3-oxazol-2-yl)-7-oxoheptyl]-1,4-dioxane-2-carboxamide]
- EC50 [1, 7]: 49 nM
- EC50 [1, 8]: 350 nM
- IC50 [2]: 5.8 nM
- IC50 [3]: 78 nM
- IC50 [4]: 0.68 nM
- IC50 [5]: 1.6 nM
- IC50 [6]: 12000 nM

Structure (SMILES): CN(C)C1(C(=O)N[C@@H](CCCCCC(=O)c2ccon2)c2ncc(-c3ccccc3F)[nH]2)CCCC1 [Example 64]
- EC50 [1, 7]: 16 nM
- EC50 [1, 8]: 28 nM
- IC50 [2]: 2.1 nM
- IC50 [3]: 3.5 nM
- IC50 [4]: 0.58 nM
- IC50 [5]: 0.64 nM
- IC50 [6]: > 900 nM

Structure (SMILES): CCN1CCC2(CC1)C[C@@H]2C(=O)N[C@@H](CCCCCC(=O)c1ncco1)c1ccn(-c2ccc3nn(C)cc3c2)n1 [Example 180, (1S)-6-ethyl-N-[(1S)-1-[1-(2-methyl-2H-indazol-5-yl)-1H-pyrazol-3-yl]-7-(1,3-oxazol-2-yl)-7-oxoheptyl]-6-azaspiro[2.5]octane-1-carboxamide]
- EC50 [1, 7]: 200 nM
- EC50 [1, 8]: 190 nM
- IC50 [2]: 5.2 nM
- IC50 [3]: 170 nM
- IC50 [4]: 0.9 nM
- IC50 [5]: 1.5 nM
- IC50 [6]: > 900 nM

Structure (SMILES): COc1cc2nc(C)ccc2cc1-c1cnc([C@H](CCCCCC(=O)c2ncco2)NC(=O)C2CCCCO2)[nH]1 (stereo partly drawn) [Example 168, N-[(1S)-1-[5-(7-methoxy-2-methylquinolin-6-yl)-1H-imidazol-2-yl]-7-(1,3-oxazol-2-yl)-7-oxoheptyl]tetrahydro-2H-pyran-2-carboxamide]
- EC50 [1, 7]: 100 nM
- EC50 [1, 8]: 200 nM
- IC50 [2]: 12 nM
- IC50 [3]: 120 nM
- IC50 [4]: 3 nM
- IC50 [5]: 1.2 nM
- IC50 [6]: > 900 nM

Structure (SMILES): COc1nc(C2CC2)ccc1-c1c[nH]c([C@H](CCCCCC(=O)c2ncco2)NC(=O)[C@H]2CC23CCN(C)CC3)n1 [Example 115, (S)-N-((S)-1-(4-(6-cyclopropyl-2-methoxypyridin-3-yl)-1H-imidazol-2-yl)-7-(oxazol-2-yl)-7-oxoheptyl)-6-methyl-6-azaspiro[2.5]octane-1-carboxamide]
- EC50 [1, 7]: 37 nM
- EC50 [1, 8]: 58 nM
- IC50 [2]: 3.9 nM
- IC50 [3]: 51 nM
- IC50 [4]: 0.66 nM
- IC50 [5]: 0.84 nM
- IC50 [6]: 300 nM

Structure (SMILES): Cc1ccc2cc(-c3cnc([C@@H](N)CCCCCC(=O)c4ncco4)[nH]3)c(Cl)cc2n1 [Example 22]
- EC50 [1, 7]: 130 nM
- EC50 [1, 8]: 290 nM
- IC50 [2]: 38 nM
- IC50 [3]: 1500 nM
- IC50 [4]: 10 nM
- IC50 [5]: 6.7 nM
- IC50 [6]: 45000 nM

Structure (SMILES): CN1CCC2(CC1)C[C@@H]2C(=O)N[C@@H](CCCCCC(=O)c1ccon1)c1[nH]c(-c2ccccc2F)nc1Cl [Example 112, (S)-N-((S)-1-(4-chloro-2-(2-fluorophenyl)-1H-imidazol-5-yl)-7-(isoxazol-3-yl)-7-oxoheptyl)-6-methyl-6-azaspiro[2.5]octane-1-carboxamide]
- EC50 [1, 7]: 1.4 nM
- EC50 [1, 8]: 1.4 nM
- IC50 [2]: 0.25 nM
- IC50 [3]: 23 nM
- IC50 [4]: 0.083 nM
- IC50 [5]: 0.035 nM
- IC50 [6]: 4600 nM

Structure (SMILES): COc1cc2nc(C)ccc2cc1-c1cnc([C@H](CCCCCC(=O)c2ncco2)NC(=O)c2cc3ccccn3n2)[nH]1 [Example 167, N-[(1S)-1-[5-(7-methoxy-2-methylquinolin-6-yl)-1H-imidazol-2-yl]-7-(1,3-oxazol-2-yl)-7-oxoheptyl]pyrazolo[1,5-a]pyridine-2-carboxamide]
- EC50 [1, 7]: 83 nM
- EC50 [1, 8]: 400 nM
- IC50 [2]: 13 nM
- IC50 [3]: 63 nM
- IC50 [4]: 2.2 nM
- IC50 [5]: 0.59 nM
- IC50 [6]: > 900 nM

Structure (SMILES): COc1cc(-c2cnc([C@H](CCCCCC(=O)c3ncco3)NC(=O)C3CN(C)C3)[nH]2)c(F)cn1 [Example 178, N-[(1S)-1-[5-(5-fluoro-2-methoxypyridin-4-yl)-1H-imidazol-2-yl]-7-(1,3-oxazol-2-yl)-7-oxoheptyl]-1-methylazetidine-3-carboxamide]
- EC50 [1, 7]: 80 nM
- EC50 [1, 8]: 1000 nM
- IC50 [2]: 7.8 nM
- IC50 [3]: 83 nM
- IC50 [4]: 2 nM
- IC50 [5]: 1.5 nM
- IC50 [6]: 5300 nM

Structure (SMILES): COc1cc2nc(C)ccc2cc1-c1cnc([C@H](CCCCCC(=O)c2cc(C)on2)NC(=O)C2CC23CCN(C)CC3)[nH]1 (stereo partly shown) [Example 58]
- EC50 [1, 7]: 6.8 nM
- EC50 [1, 8]: 11 nM
- IC50 [2]: 0.9 nM
- IC50 [3]: 120 nM
- IC50 [4]: 0.18 nM
- IC50 [5]: 0.18 nM
- IC50 [6]: 45000 nM

Structure (SMILES): CCN1CCC2(CC1)C[C@@H]2C(=O)N[C@@H](CCCCCC(=O)c1ncco1)c1ncc(-c2cc(OC)ncc2F)[nH]1 [Example 179, (1S)-6-ethyl-N-[(1S)-1-[5-(5-fluoro-2-methoxypyridin-4-yl)-1H-imidazol-2-yl]-7-(1,3-oxazol-2-yl)-7-oxoheptyl]-6-azaspiro[2.5]octane-1-carboxamide]
- EC50 [1, 7]: 36 nM
- EC50 [1, 8]: 48 nM
- IC50 [2]: 7.1 nM
- IC50 [3]: 65 nM
- IC50 [4]: 2.3 nM
- IC50 [5]: 1.5 nM
- IC50 [6]: 4300 nM

Structure (SMILES): CCN1CCC2(CC1)C[C@@H]2C(=O)N[C@@](C)(CCCCCC(=O)c1ccon1)c1ncc(-c2ccccc2F)[nH]1 [Example 183, (S)-6-ethyl-N-((S)-2-(5-(2-fluorophenyl)-1H-imidazol-2-yl)-8-(isoxazol-3-yl)-8-oxooctan-2-yl)-6-azaspiro[2.5]octane-1-carboxamide]
- EC50 [1, 7]: 37 nM
- EC50 [1, 8]: 37 nM
- IC50 [2]: 2.3 nM
- IC50 [3]: 550 nM
- IC50 [4]: 0.56 nM
- IC50 [5]: 0.48 nM
- IC50 [6]: 43000 nM

Structure (SMILES): CN1CCC(C(=O)N[C@@H](CCCCCC(=O)c2nccs2)c2nc(-c3ccc(F)cc3)c[nH]2)CC1 [Example 6, (S)-N-(1-(4-(4-fluorophenyl)-1H-imidazol-2-yl)-7-oxo-7-(thiazol-2-yl)heptyl)-1-methylpiperidine-4-carboxamide]
- EC50 [1, 7]: 87 nM
- EC50 [1, 8]: 160 nM
- IC50 [2]: 14 nM
- IC50 [3]: 55 nM
- IC50 [4]: 2.9 nM
- IC50 [5]: 1.5 nM
- IC50 [6]: 45000 nM

Structure (SMILES): N[C@@H](CCCCCC(=O)c1ncco1)c1nc(-c2ccc3nn(C4CC4)cc3c2)c[nH]1 [Example 14]
- EC50 [1, 7]: 390 nM
- EC50 [1, 8]: 270 nM
- IC50 [2]: 4.5 nM
- IC50 [3]: 3100 nM
- IC50 [4]: 0.9 nM
- IC50 [5]: 1.1 nM
- IC50 [6]: 45000 nM

Structure (SMILES): COc1cc2nc(C)ccc2cc1-c1cnc([C@H](CCCCCC(=O)c2ncco2)NC(=O)C2COCCO2)[nH]1 (stereo partly drawn) [Example 173, N-[(1S)-1-[5-(7-methoxy-2-methylquinolin-6-yl)-1H-imidazol-2-yl]-7-(1,3-oxazol-2-yl)-7-oxoheptyl]-1,4-dioxane-2-carboxamide]
- EC50 [1, 7]: 42 nM
- EC50 [1, 8]: 74 nM
- IC50 [2]: 3.2 nM
- IC50 [3]: 83 nM
- IC50 [4]: 1.1 nM
- IC50 [5]: 0.43 nM
- IC50 [6]: > 900 nM
